This is an account of results in PubChem BioAssay AID330 (DTP/NCI, 2004).

The assay relates to P388 leukemia ip, CD2F1 mice, survival T/C. Description: NCI In Vivo Anticancer Drug Screen. Data for tumor model P388 Leukemia (intraperitoneal) in CD2F1 (CDF1) mice. The following applies: endpoint: median survival time, higher = longer survival. Summed up: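 Mice carrying the transplanted tumor received test compound or vehicle. Survival was recorded in each group, and the value is the treated-group measurement divided by that of the vehicle-treated control group.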

Where [1] appears, read: dose: 12.5 mg/kg/injection, schedule: Q01DX009 (ip), vehicle: saline with Tween-80.
The mark [2] stands for this setting: dose: 25.0 mg/kg/injection, schedule: Q01DX009 (ip), vehicle: saline with Tween-80.
Where [3] appears, read: dose: 50.0 mg/kg/injection, schedule: Q01DX009 (ip), vehicle: saline with Tween-80.
The mark [4] stands for this setting: dose: 100.0 mg/kg/injection, schedule: Q01DX009 (ip), vehicle: saline with Tween-80.
Where [5] appears, read: dose: 200.0 mg/kg/injection, schedule: Q01DX009 (ip), vehicle: saline with Tween-80.
Setting [6] is: dose: 100.0 mg/kg/injection, schedule: Q01DX005 (ip), vehicle: saline with Tween-80.

The structures appear in SMILES notation. Where “and” joins values, the source holds several entries; their conditions need not be identical. Equal values may be shown once. Toxic doses and inconclusive results are not listed.

In the case of `C[n+]1c2ccccc2c(Nc2ccc(NS(=O)(=O)CCCCN=C(N)N)cc2)c2ccc(N)cc21`, the T/C is 113 % of control (dose: 0.75 mg/kg/injection, schedule: Q01DX005 (ip), vehicle: Klucel (hydroxypropylcellulose) (HPC)); 122 % of control (dose: 1.5 mg/kg/injection, schedule: Q01DX005 (ip), vehicle: Klucel (hydroxypropylcellulose) (HPC)); 151 % of control (dose: 3.0 mg/kg/injection, schedule: Q01DX005 (ip), vehicle: Klucel (hydroxypropylcellulose) (HPC)).

Turning to `CC1/C(=N/O)C(=O)c2ccccc21` (stereo unspecified), the T/C runs as follows: under setting [1], 100 % of control; under setting [2], 95 % of control; under setting [3], 100 % of control.

On to `COc1cc2c(cc1OC)[C@H](Cc1ccc(Oc3cc4c(cc3O)-c3c(OC)c(OC)cc5c3[C@@H](C4)N(C)CC5)cc1)N(C)CC2`, for which the T/C by setting is: (dose: 11.88 mg/kg/injection, schedule: Q01DX005 (ip), vehicle: Klucel (hydroxypropylcellulose) (HPC)) 98 % of control; (dose: 23.75 mg/kg/injection, schedule: Q01DX005 (ip), vehicle: Klucel (hydroxypropylcellulose) (HPC)) 92 % of control; (dose: 47.5 mg/kg/injection, schedule: Q01DX005 (ip), vehicle: Klucel (hydroxypropylcellulose) (HPC)) 93 % of control; (dose: 95.0 mg/kg/injection, schedule: Q01DX005 (ip), vehicle: Klucel (hydroxypropylcellulose) (HPC)) 105 % of control.

Regarding `CP1(=O)CCC2=C1CCc1cc(O)ccc12` (stereo unspecified), the T/C was 100 % of control (dose: 6.25 mg/kg/injection, schedule: Q01DX009 (ip), vehicle: Klucel (hydroxypropylcellulose) (HPC)); 100 % of control (dose: 12.5 mg/kg/injection, schedule: Q01DX009 (ip), vehicle: Klucel (hydroxypropylcellulose) (HPC)); 103 % of control and 106 % of control (dose: 25.0 mg/kg/injection, schedule: Q01DX009 (ip), vehicle: Klucel (hydroxypropylcellulose) (HPC)).

Regarding `CCC1=[N+](C)C(C)(C)CC(C)O1` (stereo unspecified), the T/C is 100 % of control (dose: 12.5 mg/kg/injection, schedule: Q04DX003 (ip), vehicle: saline with Tween-80); 100 % of control (dose: 25.0 mg/kg/injection, schedule: Q04DX003 (ip), vehicle: saline with Tween-80); 95 % of control (dose: 50.0 mg/kg/injection, schedule: Q04DX003 (ip), vehicle: saline with Tween-80).

`CC(=O)C(=O)c1ccc(O)c(C)c1O`: the T/C runs as follows: under setting [3], 107 % of control; under setting [4], 104 % of control; under setting [5], 105 % of control.

As to `CC1(OC(=O)c2ccccc2)CC2(CCCCC2)N=N1` (stereo unspecified), the T/C is, setting by setting: under setting [1], 113 % of control; under setting [2], 105 % of control; under setting [3], 112 % of control; under setting [4], 107 % of control; under setting [5], 105 % of control.

For the compound `CCCCOCN1C(=O)NC(c2ccccc2)(c2ccccc2)C1=O`, the T/C is 94 % of control (dose: 60.0 mg/kg/injection, schedule: Q01DX005 (ip), vehicle: Klucel (hydroxypropylcellulose) (HPC)); 94 % of control (dose: 120.0 mg/kg/injection, schedule: Q01DX005 (ip), vehicle: Klucel (hydroxypropylcellulose) (HPC)); 94 % of control (dose: 240.0 mg/kg/injection, schedule: Q01DX005 (ip), vehicle: Klucel (hydroxypropylcellulose) (HPC)).

Take `CCC12C=CCN3CC[C@@]4(c5cc([C@@]6(C(=O)OC)C[C@@H]7CN(CCc8c6[nH]c6ccccc86)C[C@](O)(CC)C7)c(OC)cc5N(C)[C@H]4[C@@](O)(C(=O)NCCCCCCCCCCCC(=O)O)[C@@H]1O)C32` (stereo partly specified): the T/C is 164 % of control (dose: 11.25 mg/kg/injection, schedule: Q01DX001 (ip), vehicle: other); 153 % of control (dose: 11.25 mg/kg/injection, schedule: Q01DX001 (ip), vehicle: saline with Tween-80); 189 % of control (dose: 11.25 mg/kg/injection, schedule: Q01DX001 (ip), vehicle: saline); 164 % of control (dose: 22.5 mg/kg/injection, schedule: Q01DX001 (ip), vehicle: saline with Tween-80); 182 % of control (dose: 45.0 mg/kg/injection, schedule: Q01DX001 (ip), vehicle: saline with Tween-80).

For `O=C(Cc1ccccc1)C1=S=C2SCCCN2C1=O`, the T/C is 105 % of control (dose: 100.0 mg/kg/injection, schedule: Q01DX001 (ip), vehicle: saline with Tween-80); 97 % of control (dose: 200.0 mg/kg/injection, schedule: Q01DX001 (ip), vehicle: saline with Tween-80); 92 % of control (dose: 400.0 mg/kg/injection, schedule: Q01DX001 (ip), vehicle: saline with Tween-80).

With `N=C1N=Nc2nc(C(C(=O)c3ccc(O)cc3O)c3nc4n(c3O)C(=N)N=N4)c(O)n21` (stereo unspecified), the T/C is 100 % of control (dose: 60.0 mg/kg/injection, schedule: Q01DX005 (ip), vehicle: saline with Tween-80); 104 % of control (dose: 120.0 mg/kg/injection, schedule: Q01DX005 (ip), vehicle: saline with Tween-80); 103 % of control (dose: 240.0 mg/kg/injection, schedule: Q01DX005 (ip), vehicle: saline with Tween-80).

As to `CN(CCO)c1ncnc2c1cnn2C`, the T/C runs as follows: (dose: 50.0 mg/kg/injection, schedule: Q01DX005 (ip), vehicle: saline) 100 % of control; (dose: 100.0 mg/kg/injection, schedule: Q01DX005 (ip), vehicle: saline) 101 % of control; (dose: 200.0 mg/kg/injection, schedule: Q01DX005 (ip), vehicle: saline) 100 % of control.

Regarding `ClC1=CC(Cl)=C2N=C(C(Cl)(Cl)Cl)N=C3N=C(C(Cl)(Cl)Cl)N=C1N32`, the T/C by setting is: (dose: 15.0 mg/kg/injection, schedule: Q01DX005 (ip), vehicle: Klucel + Tween-80) 101 % of control; (dose: 30.0 mg/kg/injection, schedule: Q01DX005 (ip), vehicle: Klucel + Tween-80) 95 % of control; (dose: 60.0 mg/kg/injection, schedule: Q01DX005 (ip), vehicle: Klucel + Tween-80) 99 % of control and 100 % of control.

`O=C(CCCN1CCC(C(=O)c2ccc(Cl)cc2)CC1)c1ccc(F)cc1`: the T/C is, setting by setting: (dose: 3.0 mg/kg/injection, schedule: Q01DX009 (ip), vehicle: Klucel (hydroxypropylcellulose) (HPC)) 99 % of control; (dose: 6.0 mg/kg/injection, schedule: Q01DX009 (ip), vehicle: Klucel (hydroxypropylcellulose) (HPC)) 97 % of control; (dose: 12.0 mg/kg/injection, schedule: Q01DX009 (ip), vehicle: Klucel (hydroxypropylcellulose) (HPC)) 108 % of control.

Regarding `N#CC1OC1c1ccccn1` (stereo unspecified), the T/C is, setting by setting: (dose: 6.25 mg/kg/injection, schedule: Q01DX005 (ip), vehicle: saline + Tween-80 + alcohol) 98 % of control; (dose: 12.5 mg/kg/injection, schedule: Q01DX005 (ip), vehicle: saline + Tween-80 + alcohol) 98 % of control.

On to `S=C1N(c2ccc(Cl)cc2)C2=C(N=Nc3ccccc3Cl)C(=Nc3ccccc3S2)N1c1ccccn1`, for which the T/C under setting [6] is 108 % of control.

For the compound `NN1C(=O)/C(=C\c2ccccc2)SC1=S`, the T/C reads like this: (dose: 100.0 mg/kg/injection, schedule: Q04DX002 (ip), vehicle: Klucel (hydroxypropylcellulose) (HPC)) 107 % of control; (dose: 200.0 mg/kg/injection, schedule: Q04DX002 (ip), vehicle: Klucel (hydroxypropylcellulose) (HPC)) 111 % of control; (dose: 400.0 mg/kg/injection, schedule: Q04DX002 (ip), vehicle: Klucel (hydroxypropylcellulose) (HPC)) 98 % of control.

As for `O=S(=O)(O)SCCNCCc1ccccn1`, the T/C (dose: 12.5 mg/kg/injection, schedule: Q01DX005 (ip), vehicle: water) was 104 % of control; the T/C (dose: 25.0 mg/kg/injection, schedule: Q01DX005 (ip), vehicle: water) is 109 % of control; the T/C (dose: 50.0 mg/kg/injection, schedule: Q01DX005 (ip), vehicle: water) was 109 % of control; the T/C (dose: 100.0 mg/kg/injection, schedule: Q01DX005 (ip), vehicle: water) is 107 % of control.

In the case of `COc1ccc(CN2COc3c(ccc4cccnc34)C2)cc1`, the T/C is, setting by setting: (dose: 100.0 mg/kg/injection, schedule: Q04DX003 (ip), vehicle: Klucel (hydroxypropylcellulose) (HPC)) 93 % of control; (dose: 200.0 mg/kg/injection, schedule: Q04DX003 (ip), vehicle: Klucel (hydroxypropylcellulose) (HPC)) 93 % of control; (dose: 400.0 mg/kg/injection, schedule: Q04DX003 (ip), vehicle: Klucel (hydroxypropylcellulose) (HPC)) 111 % of control.

As to `Cc1cc(N)c2ccccc2c1O`, the T/C by setting is: under setting [1], 110 % of control; under setting [2], 124 % of control; under setting [3], 108 % of control.

`O=C(NC(C(=O)NO)C(NO)c1ccccc1)c1ccccc1` (stereo unspecified): the T/C was 103 % of control (dose: 50.0 mg/kg/injection, schedule: Q01DX005 (ip), vehicle: saline with Tween-80); 102 % of control under setting [6]; 102 % of control (dose: 200.0 mg/kg/injection, schedule: Q01DX005 (ip), vehicle: saline with Tween-80).
